Tests used:
[1] = tested on: HeLa cells; assay: Extracellular acidification rates (ECAR), Seahorse XF24 flux analyser; format: cell-based, human; settings: 1 µM, both siCtrl- and siOPA1-transfected cells
Excerpt: (§1) The inventors assessed oxygen consumption rates (OCR), a direct measure of oxidative phosphorylation activity, and extracellular acidification rates (ECAR), representative of glycolysis, since it accounts for approximately 80% of acidification (Wu et al., 2007, Xie et al., 2009), using the Seahorse XF24 flux analyser (Seahorse Bioscience Inc, North Billerica, MA, USA). Basal respiration was 38% lower in siOPA1-transfected HeLa cells than siCtrl-treated cells (Figure 1). Furthermore, ATP-linked respiration measured in the presence of oligomycin, which inhibits ATP synthase, was reduced by 40%. The maximal OCR measured in the presence of the protonophore FCCP, which uncouples oxidation and phosphorylation, was reduced by 58%. […] Indeed, citrate synthase activity and quantity and HSP60, VDAC, and TOM20 levels were unchanged (Figures 18 and 19).
Oxygen consumption rates (OCR) and extracellular acidification rates (ECAR) were measured using the XF24 Extracellular Flux Analyser (Seahorse Bioscience, North Billerica, MA). HeLa cells (15.103) transfected with siCtrl or siOPA1 were plated on XF24 microplates three days before OCR measurements. Dual-analyte sensor cartridges were soaked in XF Calibrant Solution (Seahorse Biosciences) in 24-well cell-culture microplates overnight at 37°C to hydrate. […]

[2] = tested on: HeLa cells; assay: Oxygen consumption rates (OCR), Seahorse XF24 flux analyser; format: cell-based, human; settings: for effect on OCR / mitochondrial respiration: rotenone 1 µM plus antimycin A 1 µM, siOPA1- and siCtrl-transfected cells; for oxygen consumption due to mitochondrial respiration: shown by rotenone plus antimycin, both siOPA1- and siCtrl-transfected cells
Excerpt: as §1
Oxygen consumption rates (OCR) and extracellular acidification rates (ECAR) were measured using the XF24 Extracellular Flux Analyser (Seahorse Bioscience, North Billerica, MA). HeLa cells (15.103) transfected with siCtrl or siOPA1 were plated on XF24 microplates three days before OCR measurements. Dual-analyte sensor cartridges were soaked in XF Calibrant Solution (Seahorse Biosciences) in 24-well cell-culture microplates overnight at 37°C to hydrate. Approximately one hour prior to experimentation, injection ports on the sensor cartridge were filled with oligomycin (1 µM), Carbonyl cyanide 4-(trifluoromethoxy) phenylhydrazone (FCCP) (1 µM), and rotenone (1 µM) plus antimycin A (1 µM). Plates were then loaded into the XF24 instrument for calibration. For measuring oxygen consumption, the DMEM growth media of HeLa cells was replaced by DMEM supplemented with NaCl (143 mM), Phenol Red (3 mg/ml), glucose (10 mM), glutamine (2 mM), and pyruvate (2 mM) at pH 7.4, and the plates maintained at 37°C 1 h prior to experimentation. Plates were then loaded into the Seahorse XF24 analyser following the manufacturer's instructions.

Compound	effect of oligomycin injection on ECAR [1]	effect on OCR / mitochondrial respiration [2]	effect on OCR / mitochondrial respiration ([2]; listed as Rotenone)	oxygen consumption due to mitochondrial respiration [2]	effect on OCR / mitochondrial respiration ([2]; listed as antimycin)
CC[C@H]1/C=C/C=C/C[C@@H](C)[C@H](O)[C@@](C)(O)C(=O)[C@@H](C)[C@H](O)[C@@H](C)C(=O)[C@@H](C)[C@H](O)[C@@H](C)/C=C/C(=O)O[C@@H]2[C@H](C)[C@H](CC1)O[C@]1(CC[C@H](C)[C@H](C[C@@H](C)O)O1)[C@H]2C [oligomycin]	increased				
C=C(C)[C@H]1Cc2c(ccc3c2O[C@@H]2COc4cc(OC)c(OC)cc4[C@@H]2C3=O)O1 [rotenone]		inhibited mitochondrial respiration	considerably decreased	more than 95%	
antimycin A		inhibited mitochondrial respiration		more than 95%	considerably decreased

Source: patent EP4439067A1, “METHOD FOR IDENTIFYING REACTIVE OXYGEN SPECIES” (Centre National de la Recherche Scientifique, priority 2023, dated 2024)
